Our source for the IC50 values is patent US8680089B2, “Fused pyridine derivatives” (Xuanzhu Pharma Co., Ltd., priority 2010, dated 2014).

What all share (type): biochemical
One assay concerns the target DPP-9 (Homo sapiens, UniProt Q86TI2). As to the kind of experiment: Inhibition to DPP-9 measured by a fluorescence assay (DPPIV-Glo). As for the experimental part: (§1) The preparation of the reaction solution DPPIV-Glo® buffer should be thawed in advance. The freeze-dried […] should be taken out of the refrigerator in advance and left to room temperature. The DPPIV-Glo® substrate was dissolved in 110 μl water, and mixed thoroughly by votex as a stock solution (the concentration is 10 mmol). The […] was added into an ampoule containing 50 mL DPPIV-Glo™ buffer. Then, 100 μl solution containing DPPIV-Glo™ substrate was mixed with 50 mL DPPIV-Glo™ buffer containing a […] to afford the reaction solution, which needs to be stored in a refrigerator at −20° C.
3. The inhibition to DPP-9 was measured by a fluorescence assay:
All of the compounds were 10-fold diluted by DMSO before the experiment, and each compound needs to be diluted to 8 concentrations. Before the experiment, the solution containing DPP-9 enzyme was incubated with the mixture of compounds for 10 min at RT. And then, the reaction solution was added and incubated for 30 min. The enzyme was not added to the negative control group. The fluorescence signal was assayed after 30 min. All of the compounds were assayed twice.

In a further assay the target is DPP-8 (Homo sapiens, UniProt Q6V1X1). As to the kind of experiment: Inhibition to DPP-8 measured by a fluorescence assay (DPPIV-Glo). The conditions noted are these: 111.9 pM DPP-8, pH 7.5, 10 min preincubation at RT, 30 min reaction, 8 concentrations, assayed twice. As for the experimental part: as §1
2. The inhibition to DPP-8 was measured by a fluorescence assay:
All of the compounds were 10-fold diluted by DMSO before the experiment, and each compound needs to be diluted to 8 concentrations. Before the experiment, the solution containing DPP-8 enzyme was incubated with the mixture of compounds for 10 min at RT. And then, the reaction solution was added and incubated for 30 min. The enzyme was not added to the negative control group. The fluorescence signal was assayed after 30 min. All of the compounds were assayed twice.

The target of a further assay is DPP-IV (Homo sapiens, UniProt P27487). As to the kind of experiment: Inhibition to DPP-IV measured by a fluorescence assay (DPPIV-Glo). The conditions noted are these: 66 pM DPP-4, pH 7.5, 10 min preincubation at RT, 30 min reaction, 8 concentrations, assayed twice. As for the experimental part: as §1
1. The inhibition to DPP-IV was measured by a fluorescence assay:
All of the compounds were 10-fold diluted by DMSO before the experiment, and each compound needs to be diluted to 8 concentrations. Before the experiment, the solution containing DPP-IV enzyme was incubated with the mixture of compounds for 10 min at RT. And then, the reaction solution was added and incubated for 30 min. The enzyme was not added to the negative control group. The fluorescence signal was assayed after 30 min. All of the compounds were assayed twice.

Setting [1] is: 26 pM DPP-9, pH 7.5, 10 min preincubation at RT, 30 min reaction, 8 concentrations, assayed twice, read-out: IC50 DPP-9.

pIC50: −log10 of the molar value. Where two headings read alike, the source gives them in different places. A value given as a limit tells only on which side of the number the result lay.

Chain of DPP-9 (Q86TI2 whole entry, species assumed): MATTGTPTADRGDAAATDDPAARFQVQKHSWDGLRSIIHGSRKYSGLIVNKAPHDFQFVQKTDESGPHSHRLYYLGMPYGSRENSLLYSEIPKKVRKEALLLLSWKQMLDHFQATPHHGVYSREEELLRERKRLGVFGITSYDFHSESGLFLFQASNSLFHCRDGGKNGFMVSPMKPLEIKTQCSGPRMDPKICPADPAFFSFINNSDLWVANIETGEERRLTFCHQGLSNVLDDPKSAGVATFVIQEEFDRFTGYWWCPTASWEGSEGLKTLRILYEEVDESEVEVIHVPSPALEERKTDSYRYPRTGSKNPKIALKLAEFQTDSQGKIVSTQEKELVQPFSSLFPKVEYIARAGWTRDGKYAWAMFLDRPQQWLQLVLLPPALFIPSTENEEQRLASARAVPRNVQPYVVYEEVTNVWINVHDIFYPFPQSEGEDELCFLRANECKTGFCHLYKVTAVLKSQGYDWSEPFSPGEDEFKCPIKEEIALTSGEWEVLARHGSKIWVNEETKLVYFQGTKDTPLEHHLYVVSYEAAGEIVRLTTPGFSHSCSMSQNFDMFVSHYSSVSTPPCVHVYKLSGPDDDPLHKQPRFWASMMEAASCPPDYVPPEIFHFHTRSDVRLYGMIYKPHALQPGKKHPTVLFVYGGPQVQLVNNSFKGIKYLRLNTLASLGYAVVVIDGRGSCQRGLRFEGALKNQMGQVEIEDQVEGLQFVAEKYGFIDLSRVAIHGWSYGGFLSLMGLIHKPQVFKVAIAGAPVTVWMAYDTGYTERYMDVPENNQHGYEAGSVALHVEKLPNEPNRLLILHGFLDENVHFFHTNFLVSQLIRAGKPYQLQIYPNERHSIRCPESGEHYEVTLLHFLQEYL
Chain of DPP-8 (Q6V1X1 whole entry, species assumed): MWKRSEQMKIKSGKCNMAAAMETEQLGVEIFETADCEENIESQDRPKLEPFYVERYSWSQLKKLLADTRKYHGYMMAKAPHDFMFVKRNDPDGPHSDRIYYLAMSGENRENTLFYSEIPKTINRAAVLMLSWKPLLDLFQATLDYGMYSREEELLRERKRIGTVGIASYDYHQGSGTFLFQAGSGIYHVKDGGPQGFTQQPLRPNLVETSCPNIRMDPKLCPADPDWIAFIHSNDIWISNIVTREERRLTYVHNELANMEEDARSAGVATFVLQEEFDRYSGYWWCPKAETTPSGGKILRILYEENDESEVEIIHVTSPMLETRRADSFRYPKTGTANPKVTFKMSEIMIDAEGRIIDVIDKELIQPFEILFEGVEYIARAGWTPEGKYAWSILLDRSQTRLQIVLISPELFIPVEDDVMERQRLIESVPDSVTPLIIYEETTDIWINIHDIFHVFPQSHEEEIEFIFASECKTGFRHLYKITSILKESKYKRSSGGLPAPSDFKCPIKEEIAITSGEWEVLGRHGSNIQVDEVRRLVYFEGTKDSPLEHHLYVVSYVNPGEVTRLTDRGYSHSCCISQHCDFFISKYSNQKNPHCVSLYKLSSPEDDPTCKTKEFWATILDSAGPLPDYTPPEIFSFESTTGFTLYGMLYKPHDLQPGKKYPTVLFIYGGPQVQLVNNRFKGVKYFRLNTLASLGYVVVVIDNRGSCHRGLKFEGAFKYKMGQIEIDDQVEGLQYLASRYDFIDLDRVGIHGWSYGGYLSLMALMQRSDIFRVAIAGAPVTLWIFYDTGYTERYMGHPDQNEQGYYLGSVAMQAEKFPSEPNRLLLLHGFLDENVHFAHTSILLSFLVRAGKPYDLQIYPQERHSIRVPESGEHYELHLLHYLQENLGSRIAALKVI
Chain of DPP-IV (P27487 whole entry, species assumed): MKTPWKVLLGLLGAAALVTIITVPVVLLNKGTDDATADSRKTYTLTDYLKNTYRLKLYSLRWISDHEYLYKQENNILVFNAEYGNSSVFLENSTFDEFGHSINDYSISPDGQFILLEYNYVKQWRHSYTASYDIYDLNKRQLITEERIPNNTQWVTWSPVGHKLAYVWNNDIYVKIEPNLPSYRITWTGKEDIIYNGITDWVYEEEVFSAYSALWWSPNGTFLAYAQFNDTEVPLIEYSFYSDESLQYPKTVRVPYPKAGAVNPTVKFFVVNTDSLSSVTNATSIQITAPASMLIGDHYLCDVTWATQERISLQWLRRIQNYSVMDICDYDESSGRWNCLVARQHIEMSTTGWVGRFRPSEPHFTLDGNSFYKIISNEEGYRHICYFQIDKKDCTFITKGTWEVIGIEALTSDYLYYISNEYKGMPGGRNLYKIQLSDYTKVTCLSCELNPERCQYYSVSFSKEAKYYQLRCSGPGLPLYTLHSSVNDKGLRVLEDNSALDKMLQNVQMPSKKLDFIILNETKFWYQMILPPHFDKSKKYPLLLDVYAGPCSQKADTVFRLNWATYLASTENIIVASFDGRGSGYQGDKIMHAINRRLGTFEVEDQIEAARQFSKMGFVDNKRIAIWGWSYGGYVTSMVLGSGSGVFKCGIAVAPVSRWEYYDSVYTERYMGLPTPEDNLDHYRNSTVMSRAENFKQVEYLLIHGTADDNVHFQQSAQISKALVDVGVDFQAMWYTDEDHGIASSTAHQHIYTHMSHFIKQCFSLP

Take `Cn1c(=O)n(Cc2ccccc2C#N)c2c(N3CCC[C@@H](N)C3)ccnc21` [Compound 1, (R)-2-[[7-(3-aminopiperidin-1-yl)-3-methyl-2-oxo-2,3-dihydro-1H-imidazo[4,5-b]pyridin-1-yl]methyl]benzonitrile]: the pIC50 on DPP-9 and against DPP-8 was less than 4.00 in each case.
With `CC(C)n1c(=O)n(Cc2ccccc2C#N)c2c(N3CCC[C@@H](N)C3)ccnc21` [Compound 2, (R)-2-[[7-(3-aminopiperidin-1-yl)-3-isopropyl-2-oxo-2,3-dihydro-1H-imidazo[4,5-b]pyridin-1-yl]methyl]benzonitrile], the pIC50 at DPP-9 and against DPP-8 was less than 4.00 in each case.
Take `Cn1c(=O)n(Cc2ccccc2F)c2c(N3CCC[C@@H](N)C3)ccnc21` [Compound 3, (R)-1-(2-fluorobenzyl)-7-(3-aminopiperidin-1-yl)-3-methyl-1H-imidazo[4,5-b]pyridin-2(3H)-one]: the pIC50 against DPP-9 and on DPP-8 was less than 4.00 in each case.
Take `Cn1c(=O)n(Cc2cc(F)ccc2F)c2c(N3CCC[C@@H](N)C3)ccnc21` [Compound 4, (R)-1-(2,5-difluorobenzyl)-7-(3-aminopiperidin-1-yl)-3-methyl-1H-imidazo[4,5-b]pyridine-2(3H)-one]: the pIC50 – broadly, −log10 of the IC50, conventionally taken in molar units – on DPP-9 (setting [1]) is less than 4.00; against DPP-IV, 6.26; on DPP-8 it was less than 4.00.
In the case of `Cn1c(=O)n(Cc2ccccc2Cl)c2c(N3CCC[C@@H](N)C3)ccnc21` [Compound 5, (R)-1-(2-chlorobenzyl)-7-(3-aminopiperidin-1-yl)-3-methyl-1H-imidazo[4,5-b]pyridine-2(3H)-one], the pIC50 at DPP-9 and on DPP-8 was less than 4.00 in each case.
For `CN[C@@H]1CCCN(c2ccnc3c2n(Cc2ccccc2C#N)c(=O)n3C)C1` [Compound 6, (R)-2-[[3-methyl-7-[3-(methylamino)piperidin-1-yl]-2-oxo-2,3-dihydro-1H-imidazo[4,5-b]pyridin-1-yl]methyl]benzonitrile], the pIC50 on DPP-9 and at DPP-8 was less than 4.00 in each case.
Take `N#Cc1ccccc1Cn1c(=O)oc2nccc(N3CCC[C@@H](N)C3)c21` [Compound 11, (R)-2-[[7-(3-aminopiperidin-1-yl)-2-oxo-oxazolo[5,4-b]pyridin-1(2H)-yl]methyl]benzonitrile]: the pIC50 against DPP-9 and against DPP-8 was less than 4.00 throughout.
Turning to `Cn1c(=O)n(Cc2ccccc2C#N)c2c(N3CC[C@@H](N)C3)ccnc21` [Compound 12, (R)-2-[[7-(3-aminopyrrolidin-1-yl)-3-methyl-2-oxo-2,3-dihydro-1H-imidazo[4,5-b]pyridin-1-yl]methyl]benzonitrile], the pIC50 against DPP-9 and against DPP-8 was less than 4.00 in each case.
Regarding `Cn1c(=O)n(Cc2ccccc2C#N)c2c(N3CCCCC(N)C3)ccnc21` (centres unmarked) [Compound 15, 2-[[7-(3-aminohomopiperidin-1-yl)-3-methyl-2-oxo-2,3-dihydro-1H-imidazo[4,5-b]pyridin-1-yl]methyl]benzonitrile], the pIC50 at DPP-9 and against DPP-8 was less than 4.00 in each case.
Regarding `Cc1cc(N2CCC[C@@H](N)C2)c2c(n1)n(C)c(=O)n2Cc1ccccc1C#N` [Compound 17, (R)-2-[[7-(3-aminopiperidin-1-yl)-3,5-dimethyl-2-oxo-2,3-dihydro-1H-imidazo[4,5-b]pyridin-1-yl]methyl]benzonitrile], the pIC50 at DPP-9 (setting [1]) was less than 4.00; against DPP-IV, 8.05; against DPP-8, less than 4.00.
For the compound `Cn1c(=O)n(Cc2ccccc2C#N)c2c(N3CCC[C@@H](N)C3)c3ccccc3nc21` [Compound 18, (R)-2-[[9-(3-aminopiperidin-1-yl)-3-methyl-2-oxo-2,3-dihydro-1H-imidazo[4,5-b]quinolin-1-yl]methyl]benzonitrile], the pIC50 against DPP-9 and against DPP-8 was less than 4.00 in each case.
For `N#Cc1ccccc1Cn1c(=O)[nH]c2nccc(N3CCC[C@@H](N)C3)c21` [Compound 19, (R)-2-[[7-(3-aminopiperidin-1-yl)-2-oxo-2,3-dihydro-1H-imidazo[4,5-b]pyridin-1-yl]methyl]benzonitrile], the negative logarithm of the IC50 (pIC50) at DPP-9 and on DPP-8 was less than 4.00 throughout.
For the compound `Cc1cc(N2CC[C@@H](N)C2)c2c(n1)n(C)c(=O)n2Cc1ccccc1C#N` [Compound 21, (R)-2-[[7-(3-aminopyrrolidin-1-yl)-3,5-dimethyl-2-oxo-2,3-dihydro-1H-imidazo[4,5-b]pyridin-1-yl]methyl]benzonitrile], the pIC50 on DPP-9 (setting [1]) was less than 4.00; against DPP-IV, 7.95; against DPP-8, less than 4.00.
On to `Cn1c(=O)n(Cc2ccccc2C#N)c2c(N3CCC[C@@H](N)C3)cc(Cl)nc21` [Compound 22], for which the figures for the pIC50 at DPP-9 (setting [1]), against DPP-IV and against DPP-8 were less than 4.00, 8.00 and less than 4.00, respectively.
Turning to `CN(C)c1cc(N2CCC[C@@H](N)C2)c2c(n1)n(C)c(=O)n2Cc1ccccc1C#N` [Compound 23, (R)-2-[[7-(3-aminopiperidin-1-yl)-5-(dimethylamino)-3-methyl-2-oxo-2,3-dihydro-1H-imidazo[4,5-b]pyridin-1-yl]methyl]benzonitrile], the values for the pIC50 at DPP-9 (setting [1]), against DPP-IV and against DPP-8 were less than 4.00, 7.64 and less than 4.00, respectively.
Regarding `CCc1cc(N2CCC[C@@H](N)C2)c2c(n1)n(C)c(=O)n2Cc1ccccc1C#N` [Compound 25, (R)-2-[[7-(3-aminopiperidin-1-yl)-5-ethyl-3-methyl-2-oxo-2,3-dihydro-1H-imidazo[4,5-b]pyridin-1-yl]methyl]benzonitrile], the pIC50 at DPP-9 (setting [1]) is less than 4.00; against DPP-IV, 7.71; on DPP-8 it was less than 4.00.
Take `CCn1c(=O)n(Cc2ccccc2C#N)c2c(N3CCC[C@@H](N)C3)cc(C)nc21` [Compound 26, (R)-2-[[7-(3-aminopiperidin-1-yl)-3-ethyl-5-methyl-2-oxo-2,3-dihydro-1H-imidazo[4,5-b]pyridin-1-yl]methyl]benzonitrile]: the figures for the negative-log IC50 (pIC50) on DPP-9 (setting [1]), against DPP-IV and against DPP-8 were less than 4.00, 7.24 and less than 4.00, respectively.
On to `Cn1c(=O)n(Cc2ccccc2C#N)c2c(N3CCC[C@@H](N)C3)cc(CO)nc21` [Compound 29, (R)-2-[[7-(3-aminopiperidin-1-yl)-3-methyl-5-hydroxymethyl-2-oxo-2,3-dihydro-1H-imidazo[4,5-b]pyridin-1-yl]methyl]benzonitrile], for which the pIC50 on DPP-9 (setting [1]) was less than 4.00; on DPP-IV, 7.87; against DPP-8, less than 4.00.
`Cn1c(=O)n(Cc2ccccc2C#N)c2c(N3CCC[C@@H](N)C3)cc(C(=O)O)nc21` [Compound 30, (R)-7-(3-aminopiperidin-1-yl)-1-(2-cyanobenzyl)-3-methyl-2-oxo-2,3-dihydro-1H-imidazo[4,5-b]pyridine-5-formylic acid]: the values for the pIC50 at DPP-9 (setting [1]), on DPP-IV and at DPP-8 were less than 4.00, 8.10 and less than 4.00, respectively.
As to `Cc1cc(N2CCC[C@@H](NCc3ccccc3C#N)C2)c2c(n1)n(C)c(=O)n2Cc1ccccc1C#N` [Compound 31, (R)-7-[3-(2-cyanobenzyl)aminopiperidin-1-yl]-1-(2-cyanobenzyl)-3,5-dimethyl-2-oxo-2,3-dihydro-1H-imidazo[4,5-b]pyridine], the values for the pIC50 at DPP-9 (setting [1]), against DPP-IV and against DPP-8 were less than 4.00, 6.37 and less than 4.00, respectively.
